The structures appear in SMILES notation.

The test system of one assay is HBV rcDNA in HepDE19 cells. In words: HepDE19 assay with bDNA quantitation of HBV rcDNA. Conditions: Hepatitis B virus, HepDE19, HepDE19 assay, inhibition of rcDNA formation, bDNA quantitation; read-out: DE-19bDNA EC50. Format: cell-based, hepatitis B virus.
The EC50 is the midpoint of the concentration-response curve. Take `CN(C(=O)c1ccccc1)[C@@H]1COCc2[nH]c(=O)c3cc(F)c(F)cc3c21` [Compound 91, (S)-N-(8,9-Difluoro-6-oxo-1,4,5,6-tetrahydro-2H-pyrano[3,4-c]isoquinolin-1-yl)-N-methylbenzamide]: the EC50 is 1.01 µM.

In the case of `CN(C(=O)c1ccc(F)c(F)c1)[C@@H]1COCc2[nH]c(=O)c3cc(F)c(F)cc3c21` [Compound 92, (S)-N-(8,9-Difluoro-6-oxo-1,4,5,6-tetrahydro-2H-pyrano[3,4-c]isoquinolin-1-yl)-3,4-difluoro-N-methylbenzamide], the EC50 was 0.28 µM.

Regarding `CN(C(=O)[C@@](C)(O)c1ccccc1)[C@@H]1COCc2[nH]c(=O)c3cc(F)c(F)cc3c21` [Compound 93, (S)-N-((S)-8,9-Difluoro-6-oxo-1,4,5,6-tetrahydro-2H-pyrano[3,4-c]isoquinolin-1-yl)-2-hydroxy-N-methyl-2-phenylpropanamide], the EC50 was found to be 12 µM.

Take `CN(C(=O)[C@](C)(O)c1ccccc1)[C@@H]1COCc2[nH]c(=O)c3cc(F)c(F)cc3c21` [Compound 94, (R)-N-((S)-8,9-Difluoro-6-oxo-1,4,5,6-tetrahydro-2H-pyrano[3,4-c]isoquinolin-1-yl)-2-hydroxy-N-methyl-2-phenylpropanamide]: the EC50 was found to be 3.2 µM.

Turning to `CN(C(=O)[C@@H](O)c1ccccc1)[C@@H]1COCc2[nH]c(=O)c3cc(F)c(F)cc3c21` [Compound 95, (S)-N-((S)-8,9-Difluoro-6-oxo-1,4,5,6-tetrahydro-2H-pyrano[3,4-c]isoquinolin-1-yl)-2-hydroxy-N-methyl-2-phenylacetamide], the EC50 turned out to be 24 µM.

Take `CN(C(=O)[C@H](O)c1ccccc1)[C@@H]1COCc2[nH]c(=O)c3cc(F)c(F)cc3c21` [Compound 96, (R)-N-((S)-8,9-Difluoro-6-oxo-1,4,5,6-tetrahydro-2H-pyrano[3,4-c]isoquinolin-1-yl)-2-hydroxy-N-methyl-2-phenylacetamide]: the concentration giving a half-maximal response (EC50) amounted to 10 µM.

As to `CN(C(=O)c1cc2c(F)c(F)c(F)cc2[nH]1)[C@@H]1COCc2[nH]c(=O)c3cc(F)c(F)cc3c21` [Compound 97, (S)-N-(8,9-Difluoro-6-oxo-1,4,5,6-tetrahydro-2H-pyrano[3,4-c]isoquinolin-1-yl)-4,5,6-trifluoro-N-methyl-1H-indole-2-carboxamide], the EC50 was found to be 0.01 µM.

In the case of `CN(C(=O)c1ccc(C(F)(F)F)cc1)[C@@H]1COCc2[nH]c(=O)c3cc(F)c(F)cc3c21` [Compound 98, (S)-N-(8,9-Difluoro-6-oxo-1,4,5,6-tetrahydro-2H-pyrano[3,4-c]isoquinolin-1-yl)-N-methyl-4-(trifluoromethyl)benzamide], the EC50 was determined as 0.01 µM.

For `CN(C(=O)c1ccc(C#N)c(F)c1)[C@@H]1COCc2[nH]c(=O)c3cc(F)c(F)cc3c21` [Compound 100, (S)-4-Cyano-N-(8,9-difluoro-6-oxo-1,4,5,6-tetrahydro-2H-pyrano[3,4-c]isoquinolin-1-yl)-3-fluoro-N-methylbenzamide], the EC50 came out at 0.04 µM.

Turning to `CN(C(=O)c1ccc(F)c(C(F)F)c1)[C@@H]1COCc2[nH]c(=O)c3cc(F)c(F)cc3c21` [Compound 109, (S)-N-(8,9-Difluoro-6-oxo-1,4,5,6-tetrahydro-2H-pyrano[3,4-c]isoquinolin-1-yl)-3-(difluoromethyl)-4-fluoro-N-methylbenzamide], the EC50 came to 0.02 µM.

Turning to `CN(C(=O)c1ccc(C(F)F)c(F)c1)[C@@H]1COCc2[nH]c(=O)c3cc(F)c(F)cc3c21` [Compound 110, (S)-N-(8,9-Difluoro-6-oxo-1,4,5,6-tetrahydro-2H-pyrano[3,4-c]isoquinolin-1-yl)-4-(difluoromethyl)-3-fluoro-N-methylbenzamide], the EC50 came to 0.01 µM.

Turning to `CN(C(=O)c1ccc(C(F)F)cc1)[C@@H]1COCc2[nH]c(=O)c3cc(F)c(F)cc3c21` [Compound 111, (S)-N-(8,9-Difluoro-6-oxo-1,4,5,6-tetrahydro-2H-pyrano[3,4-c]isoquinolin-1-yl)-4-(difluoromethyl)-N-methylbenzamide], the EC50 was determined as 0.02 µM.

For the molecule `CN(C(=O)c1ccc(F)c(Cl)c1)[C@@H]1COCc2[nH]c(=O)c3cc(F)c(F)cc3c21` [Compound 112, (S)-3-Chloro-N-(8,9-difluoro-6-oxo-1,4,5,6-tetrahydro-2H-pyrano[3,4-c]isoquinolin-1-yl)-4-fluoro-N-methylbenzamide], the EC50 is 0.04 µM.

`CN(C(=O)c1nc2ccccc2s1)[C@@H]1COCc2[nH]c(=O)c3cc(F)c(F)cc3c21` [Compound 123, (S)-N-(8,9-Difluoro-6-oxo-1,4,5,6-tetrahydro-2H-pyrano[3,4-c]isoquinolin-1-yl)-N-methylbenzo[d]thiazole-2-carboxamide]: the EC50 came to 1.5 µM.

`CN(C(=O)c1nc2ccccc2o1)[C@@H]1COCc2[nH]c(=O)c3cc(F)c(F)cc3c21` [Compound 124, (S)-N-(8,9-Difluoro-6-oxo-1,4,5,6-tetrahydro-2H-pyrano[3,4-c]isoquinolin-1-yl)-N-methylbenzo[d]oxazole-2-carboxamide]: the EC50 was found to be 1.1 µM.

With `CN(C(=O)c1cc(C(F)(F)F)n[nH]1)[C@@H]1COCc2[nH]c(=O)c3cc(F)c(F)cc3c21` [Compound 125, (S)-N-(8,9-Difluoro-6-oxo-1,4,5,6-tetrahydro-2H-pyrano[3,4-c]isoquinolin-1-yl)-N-methyl-3-(trifluoromethyl)-1H-pyrazole-5-carboxamide], the EC50 was 0.15 µM.

As to `CN(C(=O)c1cc(-c2ccc(F)cc2)n[nH]1)[C@@H]1COCc2[nH]c(=O)c3cc(F)c(F)cc3c21` [Compound 126, (S)-N-(8,9-Difluoro-6-oxo-1,4,5,6-tetrahydro-2H-pyrano[3,4-c]isoquinolin-1-yl)-3-(4-fluorophenyl)-N-methyl-1H-pyrazole-5-carboxamide], the EC50 came to 21 µM.

On to `CN(C(=O)c1cccc(F)c1)[C@@H]1COCc2[nH]c(=O)c3cc(F)c(F)cc3c21` [Compound 127, (S)-N-(8,9-Difluoro-6-oxo-1,4,5,6-tetrahydro-2H-pyrano[3,4-c]isoquinolin-1-yl)-3-fluoro-N-methylbenzamide], for which the EC50 is 0.38 µM.

`CN(C(=O)c1cccc(Cl)c1)[C@@H]1COCc2[nH]c(=O)c3cc(F)c(F)cc3c21` [Compound 128, (S)-3-Chloro-N-(8,9-difluoro-6-oxo-1,4,5,6-tetrahydro-2H-pyrano[3,4-c]isoquinolin-1-yl)-N-methylbenzamide]: the EC50 stood at 0.09 µM.

Consider `CN(C(=O)c1cccc(Br)c1)[C@@H]1COCc2[nH]c(=O)c3cc(F)c(F)cc3c21` [Compound 129, (S)-3-Bromo-N-(8,9-difluoro-6-oxo-1,4,5,6-tetrahydro-2H-pyrano[3,4-c]isoquinolin-1-yl)-N-methylbenzamide], for which the EC50 was determined as 0.09 µM.

`CN(C(=O)c1ccc(F)c(Br)c1)[C@@H]1COCc2[nH]c(=O)c3cc(F)c(F)cc3c21` [Compound 130, (S)-3-Bromo-N-(8,9-difluoro-6-oxo-1,4,5,6-tetrahydro-2H-pyrano[3,4-c]isoquinolin-1-yl)-4-fluoro-N-methylbenzamide]: the EC50 turned out to be 0.01 µM.

In the case of `CN(C(=O)c1ccc(Br)cc1)[C@@H]1COCc2[nH]c(=O)c3cc(F)c(F)cc3c21` [Compound 131, (S)-4-Bromo-N-(8,9-difluoro-6-oxo-1,4,5,6-tetrahydro-2H-pyrano[3,4-c]isoquinolin-1-yl)-N-methylbenzamide], the EC50 was determined as 0.01 µM.

Turning to `CN(C(=O)c1cccc(C#N)c1)[C@@H]1COCc2[nH]c(=O)c3cc(F)c(F)cc3c21` [Compound 135, (S)-3-Cyano-N-(8,9-difluoro-6-oxo-1,4,5,6-tetrahydro-2H-pyrano[3,4-c]isoquinolin-1-yl)-N-methylbenzamide], the EC50 stood at 0.77 µM.

Take `CN(C(=O)c1ccc(OC(F)(F)F)c(F)c1)[C@@H]1COCc2[nH]c(=O)c3cc(F)c(F)cc3c21` [Compound 136, (S)-N-(8,9-Difluoro-6-oxo-1,4,5,6-tetrahydro-2H-pyrano[3,4-c]isoquinolin-1-yl)-3-fluoro-N-methyl-4-(trifluoromethoxy)benzamide]: the EC50 was determined as 0.04 µM.

Turning to `Cc1ccc(C(=O)N(C)[C@@H]2COCc3[nH]c(=O)c4cc(F)c(F)cc4c32)cc1F` [Compound 137, (S)-N-(8,9-Difluoro-6-oxo-1,4,5,6-tetrahydro-2H-pyrano[3,4-c]isoquinolin-1-yl)-3-fluoro-N,4-dimethylbenzamide], the EC50 worked out at 0.06 µM.

In the case of `CN(C(=O)[C@H](O)c1cccc(Cl)c1)[C@@H]1COCc2[nH]c(=O)c3cc(F)c(F)cc3c21` [Compound 138, (R)-2-(3-Chlorophenyl)-N-((S)-8,9-difluoro-6-oxo-1,4,5,6-tetrahydro-2H-pyrano[3,4-c]isoquinolin-1-yl)-2-hydroxy-N-methylacetamide], the EC50 came out at 1.2 µM.

`CN(C(=O)c1cc(F)c(C(F)(F)F)c(F)c1)[C@@H]1COCc2[nH]c(=O)c3cc(F)c(F)cc3c21` [Compound 139, (S)-N-(8,9-Difluoro-6-oxo-1,4,5,6-tetrahydro-2H-pyrano[3,4-c]isoquinolin-1-yl)-3,5-difluoro-N-methyl-4-(trifluoromethyl)benzamide]: the EC50 turned out to be 0.01 µM.

On to `CN(C(=O)c1csc(Cl)c1)[C@@H]1COCc2[nH]c(=O)c3cc(F)c(F)cc3c21` [Compound 140, (S)-5-Chloro-N-(8,9-difluoro-6-oxo-1,4,5,6-tetrahydro-2H-pyrano[3,4-c]isoquinolin-1-yl)-N-methylthiophene-3-carboxamide], for which the EC50 came out at 0.1 µM.

For the molecule `CN([C@@H]1COCc2[nH]c(=O)c3cc(F)c(F)cc3c21)S(=O)(=O)c1ccc(F)c(Cl)c1` [Compound 143, (S)-3-Chloro-N-(8,9-difluoro-6-oxo-1,4,5,6-tetrahydro-2H-pyrano[3,4-c]isoquinolin-1-yl)-4-fluoro-N-methylbenzenesulfonamide], the EC50 came to 18 µM.

The same assay, now with this note: Hepatitis B virus, HepDE19, read-out: DE-19bDNA EC50 (μM).
In the case of `CN(C(=O)c1ccc(Cl)cc1)[C@@H]1COCc2[nH]c(=O)c3cc(F)c(F)cc3c21` [Compound 99, (S)-4-Chloro-N-(8,9-difluoro-6-oxo-1,4,5,6-tetrahydro-2H-pyrano[3,4-c]isoquinolin-1-yl)-N-methylbenzamide], the EC50 came to 0.02 µM.

(Values after US20240228504A1, “SUBSTITUTED TRICYCLIC AMIDES, ANALOGUES THEREOF, AND METHODS USING SAME” (Arbutus Biopharma Corporation, priority 2020, published 2024).)
